{"source": "paper PMC5819902", "about": "“Activation loop targeting strategy for design of receptor-interacting protein kinase 2 (RIPK2) inhibitors” (Bioorganic & Medicinal Chemistry Letters, 2018)", "format_in_all_cases": "biochemical", "key": {"[1]": {"molecular_target": "T1, receptor-interacting protein kinase 2 (RIPK2) (Homo sapiens, UniProt O43353)", "T1 sequence (O43353 whole entry)": "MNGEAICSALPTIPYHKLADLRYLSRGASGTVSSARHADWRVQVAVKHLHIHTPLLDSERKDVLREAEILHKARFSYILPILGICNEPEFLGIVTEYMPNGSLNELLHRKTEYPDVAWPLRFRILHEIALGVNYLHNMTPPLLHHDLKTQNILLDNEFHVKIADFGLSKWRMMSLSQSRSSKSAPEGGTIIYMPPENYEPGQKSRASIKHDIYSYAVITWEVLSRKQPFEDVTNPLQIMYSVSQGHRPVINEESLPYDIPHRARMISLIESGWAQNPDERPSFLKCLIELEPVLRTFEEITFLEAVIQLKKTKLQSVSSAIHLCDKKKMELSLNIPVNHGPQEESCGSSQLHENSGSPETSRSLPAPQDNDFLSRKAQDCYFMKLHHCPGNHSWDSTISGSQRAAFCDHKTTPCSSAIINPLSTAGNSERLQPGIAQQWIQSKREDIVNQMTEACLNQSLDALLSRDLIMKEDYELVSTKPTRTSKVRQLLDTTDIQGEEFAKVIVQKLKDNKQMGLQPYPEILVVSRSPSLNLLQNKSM", "test": "in vitro enzyme inhibition, % inhibition at […]", "conditions": "0.5 µM"}, "R171C RIPK2 [2]": {"molecular_target": "T2, R171C RIPK2 (Homo sapiens, UniProt O43353, R171C)", "T2 sequence (O43353 whole entry R171C)": "as the sequence (O43353 whole entry) above, with R171C counted along it", "test": "in vitro enzyme inhibition, % inhibition at […]", "conditions": "5 µM"}, "[3]": {"molecular_target": "T1, receptor-interacting protein kinase 2 (RIPK2)", "test": "in vitro enzyme inhibition, % inhibition at […]", "conditions": "5 µM"}, "[4]": {"molecular_target": "T1, receptor-interacting protein kinase 2 (RIPK2)", "test": "in vitro RIPK2 enzyme inhibition"}, "R171C RIPK2 [5]": {"molecular_target": "T2, R171C RIPK2", "test": "in vitro RIPK2 enzyme inhibition"}, "[6]": {"molecular_target": "T1, receptor-interacting protein kinase 2 (RIPK2)", "test": "X-ray co-crystal structure ([…] Å); in vitro enzyme inhibition IC50"}, "R171C RIPK2 [7]": {"molecular_target": "T2, R171C RIPK2", "test": "in vitro enzyme inhibition, % inhibition at […]", "conditions": "1 µM"}, "[8]": {"molecular_target": "T1, receptor-interacting protein kinase 2 (RIPK2)", "test": "in vitro enzyme inhibition, % inhibition at […]", "conditions": "1 µM"}}, "data": [{"compound": "CNC(=O)c1cc(Oc2ccc(NC(=O)Nc3cccc(CC#N)c3)c(F)c2)ccn1", "note": "[CSR25]", "values": [{"measurement": "% Inhibition / RIPK2 WT", "setting": "[1]", "value": 43}]}, {"compound": "CNC(=O)c1cc(Oc2ccc(NC(=O)Nc3cccc(C(C)(C)C(=O)O)c3)c(F)c2)ccn1", "note": "[CSR29]", "values": [{"measurement": "% Inhibition / R171C RIPK2", "setting": "R171C RIPK2 [2]", "value": 67}]}, {"compound": "CNC(=O)c1cc(Oc2ccc(NC(=O)Nc3cccc(CC(=O)OC)c3)c(F)c2)ccn1", "note": "[CSR30]", "values": [{"measurement": "% Inhibition / RIPK2 WT", "setting": "[3]", "value": 69}, {"measurement": "% Inhibition / R171C RIPK2", "setting": "R171C RIPK2 [2]", "value": 76}]}, {"compound": "O=C(O)CSc1ccc(NC(=O)Nc2ccccc2F)cc1F", "note": "[CSR35F2]", "values": [{"measurement": "IC50", "setting": "[4]", "value": "13.2 ± 1.7", "unit": "µM"}]}, {"compound": "CNC(=O)c1cc(Oc2ccc(NC(=O)Nc3ccc(SCC(=O)O)c(F)c3)c(F)c2)ccn1", "note": "[CSR35]", "values": [{"measurement": "IC50", "setting": "R171C RIPK2 [5]", "value": "4.87 ± 0.96", "unit": "µM"}, {"measurement": "IC50", "setting": "[6]", "value": "2.26 ± 0.11", "unit": "µM"}]}, {"compound": "CNC(=O)c1cc(Oc2ccc(NC(=O)Nc3ccc(SCC(=O)OC)c(F)c3)c(F)c2)ccn1", "note": "[CSR36]", "values": [{"measurement": "% Inhibition / R171C RIPK2", "setting": "R171C RIPK2 [7]", "value": 92}, {"measurement": "% Inhibition / RIPK2 WT", "setting": "[8]", "value": 94}]}]}
